According to patent publication US20100267561A1, “HERBICIDAL PYRIDAZINONE DERIVATIVES” (priority 2007, published 2010):

Legend:
Format in all cases: in vivo
[1] = test system: blackgrass (Alopecurus myosuroides); experiment: Test C pre-/postemergence plant response; settings: Preemergence
Method in brief: (§1)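 Test chemicals in a non-phytotoxic solvent with surfactant were applied preemergence, and some were also applied postemergence to plants 2–18 cm tall (1- to 4-leaf stage). Visual ratings against controls were made after 15–25 days in a controlled environment, on a 0–100 scale where 100 means complete control.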

[2] = test system: canarygrass (Phalaris minor); experiment: Test C pre-/postemergence plant response; settings: Preemergence
Method in brief: as §1

[3] = test system: Italian ryegrass (Lolium multiflorum); experiment: Test C pre-/postemergence plant response; settings: Preemergence
Method in brief: as §1

[4] = test system: wild mustard (Sinapis arvensis); experiment: Test C pre-/postemergence plant response; settings: Preemergence
Method in brief: as §1

[5] = test system: green foxtail (Setaria viridis); experiment: Test C pre-/postemergence plant response; settings: Preemergence
Method in brief: as §1

[6] = test system: annual bluegrass (Poa annua); experiment: Test C pre-/postemergence plant response; settings: Preemergence
Method in brief: as §1

[7] = test system: spring wheat (Triticum aestivum); experiment: Test C pre-/postemergence plant response; settings: Preemergence
Method in brief: as §1

[8] = test system: winter barley (Hordeum vulgare); experiment: Test C pre-/postemergence plant response; settings: Preemergence
Method in brief: as §1

wild oat (Avena fatua) = experiment: Test C pre-/postemergence plant response; settings: Preemergence
Method in brief: as §1

[9] = test system: spring barley (Hordeum vulgare); experiment: Test C pre-/postemergence plant response; settings: Preemergence
Method in brief: as §1

[10] = test system: winter wheat (Triticum aestivum); experiment: Test C pre-/postemergence plant response; settings: Preemergence
Method in brief: as §1

[11] = test system: windgrass (Apera spica-venti); experiment: Test C pre-/postemergence plant response; settings: Preemergence
Method in brief: as §1

[12] = test system: downy bromegrass (Bromus tectorum); experiment: Test C pre-/postemergence plant response; settings: Preemergence
Method in brief: as §1

[13] = test system: pigweed (Amaranthus retroflexus); experiment: Test C pre-/postemergence plant response; settings: Preemergence
Method in brief: as §1

[14] = test system: canarygrass (Phalaris minor); experiment: Test B postemergence plant response; settings: for Plant response rating, Canarygrass: Postemergence
Method in brief: (§2)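 Postemergence greenhouse test; plants at 2 to 18 cm (1- to 4-leaf stage) given formulated test chemical, held 13 to 15 days, then visually rated against untreated controls on a 0 (no effect) to 100 (complete control) scale; dash means no result.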

[15] = test system: winter barley (Hordeum vulgare); experiment: Test B postemergence plant response; settings: for Plant response rating, Barley: Postemergence, scale 0 to 100, 0 no effect, 100 complete control
Method in brief: as §2

[16] = test system: windgrass (Apera spica-venti); experiment: Test B postemergence plant response; settings: for Windgrass plant response rating: 8 g ai/ha, postemergence, 0-100 scale; for Plant response rating, Windgrass: Postemergence
Method in brief: as §2

[17] = 8 g ai/ha, scale 0 to 100 (0 no effect, 100 complete control)
[18] = 16 g ai/ha, scale 0 to 100 (0 no effect, 100 complete control)
[19] = 31 g ai/ha, scale 0 to 100 (0 no effect, 100 complete control)
[20] = 62 g ai/ha, scale 0 to 100, 0 no effect, 100 complete control
[21] = 8 g ai/ha, postemergence, 0-100 scale

CCc1cc(-c2ccc(Cl)cc2)nn1-c1c(OC(=O)OC(C)C)cnn(C)c1=O [Compound 41]
Plant response rating, Blackgrass [1, 17]: 100
Plant response rating, Blackgrass [1, 18]: 100
Plant response rating, Blackgrass [1, 19]: 100
Plant response rating, Blackgrass [1, 20]: 100
Plant response rating, Canarygrass [2, 17]: 50
Plant response rating, Canarygrass [2, 18]: 80
Plant response rating, Canarygrass [2, 19]: 98
Plant response rating, Canarygrass [2, 20]: 100
Plant response rating, Ryegrass, Italian [3, 17]: 100
Plant response rating, Ryegrass, Italian [3, 18]: 100
Plant response rating, Ryegrass, Italian [3, 19]: 100
Plant response rating, Ryegrass, Italian [3, 20]: 100
Plant response rating, Mustard, Wild [4, 17]: 0
Plant response rating, Mustard, Wild [4, 19]: 0
Plant response rating, Mustard, Wild [4, 20]: 0
Plant response rating, Foxtail, Green [5, 17]: 98
Plant response rating, Foxtail, Green [5, 18]: 100
Plant response rating, Foxtail, Green [5, 19]: 100
Plant response rating, Foxtail, Green [5, 20]: 100
Plant response rating, Bluegrass [6, 17]: 0
Plant response rating, Bluegrass [6, 18]: 0
Plant response rating, Wheat, Spring [7, 17]: 0
Plant response rating, Wheat, Spring [7, 18]: 50
Plant response rating, Wheat, Spring [7, 19]: 75
Plant response rating, Wheat, Spring [7, 20]: 95
Plant response rating, Barley, Winter [8, 17]: 10
Plant response rating, Barley, Winter [8, 18]: 25
Plant response rating, Barley, Winter [8, 19]: 70
Plant response rating, Barley, Winter [8, 20]: 80
Plant response rating, Oat, Wild (wild oat (Avena fatua); [17]): 65
Plant response rating, Oat, Wild (wild oat (Avena fatua); [18]): 75
Plant response rating, Oat, Wild (wild oat (Avena fatua); [19]): 95
Plant response rating, Oat, Wild (wild oat (Avena fatua); [20]): 95
Plant response rating, Barley, Spring [9, 17]: 0
Plant response rating, Barley, Spring [9, 18]: 65
Plant response rating, Barley, Spring [9, 19]: 75
Plant response rating, Barley, Spring [9, 20]: 90
Plant response rating, Wheat, Winter [10, 17]: 0
Plant response rating, Wheat, Winter [10, 18]: 40
Plant response rating, Wheat, Winter [10, 19]: 60
Plant response rating, Wheat, Winter [10, 20]: 98
Plant response rating, Windgrass [11, 17]: 65
Plant response rating, Windgrass [11, 18]: 98
Plant response rating, Windgrass [11, 19]: 100
Plant response rating, Windgrass [11, 20]: 100
Plant response rating, Bromegrass, Downy [12, 17]: 0
Plant response rating, Bromegrass, Downy [12, 18]: 50
Plant response rating, Bromegrass, Downy [12, 19]: 50
Plant response rating, Bromegrass, Downy [12, 20]: 80
Plant response rating, Pigweed [13, 17]: 0
Plant response rating, Pigweed [13, 18]: 0
Plant response rating, Pigweed [13, 19]: 0
Plant response rating, Pigweed [13, 20]: 0
Plant response rating, Canarygrass ([14]; 16 g ai/ha, scale 0 to 100): 0
Plant response rating, Canarygrass ([14]; 31 g ai/ha, scale 0 to 100, 0 no effect, 100 complete control): 0
Plant response rating, Canarygrass [14, 20]: 0
Plant response rating, Barley ([15]; 16 g ai/ha): 0
Plant response rating, Barley ([15]; 31 g ai/ha): 0
Plant response rating, Barley ([15]; 62 g ai/ha): 0
Windgrass plant response rating [16]: 30
Plant response rating, Windgrass ([16]; 16 g ai/ha, scale 0 to 100): 60
Plant response rating, Windgrass [16, 20]: 85

Cc1cc(-c2ccc(Cl)cc2)nn1-c1c(OC(=O)c2ccccc2)cnn(C)c1=O [Compound 48]
Plant response rating, Blackgrass [1, 17]: 35
Plant response rating, Blackgrass [1, 18]: 50
Plant response rating, Blackgrass [1, 19]: 65
Plant response rating, Blackgrass [1, 20]: 98
Plant response rating, Canarygrass [2, 17]: 0
Plant response rating, Canarygrass [2, 18]: 0
Plant response rating, Canarygrass [2, 19]: 85
Plant response rating, Canarygrass [2, 20]: 95
Plant response rating, Ryegrass, Italian [3, 17]: 40
Plant response rating, Ryegrass, Italian [3, 18]: 40
Plant response rating, Ryegrass, Italian [3, 19]: 90
Plant response rating, Ryegrass, Italian [3, 20]: 100
Plant response rating, Mustard, Wild [4, 19]: 0
Plant response rating, Mustard, Wild [4, 20]: 0
Plant response rating, Foxtail, Green [5, 17]: 35
Plant response rating, Foxtail, Green [5, 18]: 95
Plant response rating, Foxtail, Green [5, 19]: 100
Plant response rating, Foxtail, Green [5, 20]: 100
Plant response rating, Bluegrass [6, 17]: 0
Plant response rating, Bluegrass [6, 18]: 0
Plant response rating, Bluegrass [6, 19]: 0
Plant response rating, Bluegrass [6, 20]: 0
Plant response rating, Wheat, Spring [7, 17]: 0
Plant response rating, Wheat, Spring [7, 18]: 35
Plant response rating, Wheat, Spring [7, 19]: 60
Plant response rating, Wheat, Spring [7, 20]: 75
Plant response rating, Barley, Winter [8, 17]: 0
Plant response rating, Barley, Winter [8, 18]: 0
Plant response rating, Barley, Winter [8, 19]: 0
Plant response rating, Barley, Winter [8, 20]: 70
Plant response rating, Oat, Wild (wild oat (Avena fatua); [17]): 0
Plant response rating, Oat, Wild (wild oat (Avena fatua); [18]): 0
Plant response rating, Oat, Wild (wild oat (Avena fatua); [19]): 50
Plant response rating, Oat, Wild (wild oat (Avena fatua); [20]): 70
Plant response rating, Barley, Spring [9, 17]: 0
Plant response rating, Barley, Spring [9, 18]: 15
Plant response rating, Barley, Spring [9, 19]: 30
Plant response rating, Barley, Spring [9, 20]: 80
Plant response rating, Wheat, Winter [10, 17]: 0
Plant response rating, Wheat, Winter [10, 18]: 0
Plant response rating, Wheat, Winter [10, 19]: 20
Plant response rating, Wheat, Winter [10, 20]: 70
Plant response rating, Windgrass [11, 17]: 0
Plant response rating, Windgrass [11, 18]: 0
Plant response rating, Windgrass [11, 19]: 35
Plant response rating, Windgrass [11, 20]: 80
Plant response rating, Bromegrass, Downy [12, 17]: 0
Plant response rating, Bromegrass, Downy [12, 18]: 0
Plant response rating, Bromegrass, Downy [12, 19]: 0
Plant response rating, Bromegrass, Downy [12, 20]: 40
Plant response rating, Pigweed [13, 17]: 0
Plant response rating, Pigweed [13, 18]: 0
Plant response rating, Pigweed [13, 19]: 0
Plant response rating, Pigweed [13, 20]: 0
Canarygrass plant response rating [14, 21]: 0
Plant response rating, Canarygrass ([14]; 16 g ai/ha, scale 0 to 100): 0
Plant response rating, Canarygrass ([14]; 31 g ai/ha, scale 0 to 100): 90
Barley plant response rating [15, 21]: 0
Plant response rating, Barley ([15]; 16 g ai/ha): 0
Plant response rating, Barley ([15]; 62 g ai/ha): 10
Windgrass plant response rating [16]: 0
Plant response rating, Windgrass ([16]; 16 g ai/ha, scale 0 to 100): 40
Plant response rating, Windgrass ([16]; 31 g ai/ha, scale 0 to 100): 60
Plant response rating, Windgrass [16, 20]: 80
